Results: patent publication US20060167094A1, “Satiety agent” (priority 2005, published 2006)
Where two headings read alike, the source gives them in different places.

Legend:
plasma GLP-1 = assay: Plasma GLP-1 concentrations by radioimmunoassay; format: in vivo, human
Protocol: (§1) Once the catheter was positioned correctly, fasting motility was monitored until the occurrence of phase III of the interdigestive migrating motor complex (MMC). Immediately after the cessation of phase III activity [at time t=−15 min], a baseline venous blood sample was taken, and a visual analog scale questionnaire (VAS) (see Measurements), assessing appetite-related sensations, was administered. At t=0 min (i.e., during phase I of the MMC), the duodenal infusion of 1) C12, 2) C10, or 3) control solution was commenced and continued for 90 min. APD pressures were monitored throughout the infusion period; blood samples were taken, and the VAS administered every 15 min from t=0 min until t=90 min. At t=90 min, the infusion was terminated, and the subject was immediately extubated and offered a cold buffet-style meal, the composition of which is provided in Table 1. The amount of food offered was in excess of what the subject was expected to consume. The subject was given 30 min (i.e., t=90 min to t=120 min) to consume the meal and instructed to eat until comfortably full. After ingestion of the meal, the subject was monitored for a further 30 min, a further VAS was completed, and blood samples were taken at t=120 and 150 min. The intravenous cannula was then removed, and the subject was allowed to leave the laboratory.
(§2) Venous blood samples (10 ml) were collected in ice-chilled EDTA-treated tubes containing 400 kIU aprotinin (Trasylol, Bayer Australia) per millilitre of blood. Plasma was separated by centrifugation (3,200 rpm, 15 min, 4° C.) within 30 min of collection and stored at −70° C. until assayed.
Plasma GLP-1 concentrations (in pmol/l) were measured by radioimmunoassay using an adaptation of a previously published method (4) Antibody, supplied by Prof. […] It is likely that this antibody also reacts with the degraded form of GLP-1(9-36) amide. Intra-assay CV was 17% and interassay CV was 18%, with a sensitivity of 1.5 pmol/l.

CCK secretion = conditions: humans, cited from earlier work
[1] = Antropyloroduodenal (APD) pressures by manometry during intraduodenal infusion; format: in vivo, human
From the text: Subjects attended the laboratory at 0830 after fasting from 2200 the previous night from both solids and liquids. They were intubated with a 17-channel manometric catheter (Dentsleeve; Adelaide, South Australia, Australia) that was inserted through an anesthetized nostril and allowed to pass through the stomach and into the duodenum by peristalsis. The manometric catheter, which consisted of 16 sideholes spaced at 1.5-cm intervals, measures pressures in the antrum, pylorus, and duodenum. Six side holes (channels 1-6) were positioned in the antrum, a 4.5-cm sleeve sensor (channel 7), with two channels present on the back of the sleeve (channels 8 and 9), designed to measure pressure waves occurring over the entire pyloric region, were positioned across the pylorus, and seven channels were positioned in the duodenum (channels 10-16). An additional channel, used for intraduodenal infusions, was positioned 11.75 cm distal to the end of the sleeve sensor. The correct positioning of the catheter, so the sleeve sensor straddled the pylorus, was maintained by continuous measurement of the transmucosal potential difference (TMPD) between the most distal antral channel (channel 6; approximately −40 mV) and the most proximal duodenal channel (channel 10; ˜0 mV). For this purpose, an intravenous cannula filled with sterile saline was placed subcutaneously in the left forearm and used as a reference electrode. All manometric channels were perfused with degassed, distilled water except for the two TMPD channels, which were perfused with degassed 0.9% saline at 0.15 ml/min. An intravenous cannula was also placed into a right forearm vein for blood sampling to measure plasma CCK and GLP-1 concentrations.
as §1
APD pressures. Manometric pressures were digitized, recorded on a computer-based system (PowerMac 7100/75, Apple Computers; Cupertino, Calif.) running commercially available software (HAD, Associate Prof. G S Hebbard, Melbourne, Australia) written in LabView 3.1.1 (National Instruments), and stored for subsequent analysis. APD pressures were analysed for 1) number and amplitude of isolated pyloric pressure waves (IPPWs) and pressure waves (PWs) in the antrum and duodenum and 2) number and length of PW sequences (PWSs) in the duodenum using custom-written software (Gastrointestinal Motility Unit; Utrecht, The Netherlands) modified to our requirements. […]

[2] = Energy intake from the buffet meal after intraduodenal infusion; format: in vivo, human
Protocol: (§3) Each subject was studied on three occasions, separated by 3-10 days, to evaluate, in a double-blind, randomized fashion, the effects of intraduodenal infusions of 1) C12, 2) C10, or 3) control solution for 90 min on appetite perceptions, energy intake, APD pressures, and plasma CCK and GLP-1 concentrations.
as §1
Energy intake from the buffet meal [energy consumption (in kJ) and macronutrient distribution (in % and g energy)] was analyzed using commercially available software (Food works 3.0, Xyris Software; Highgate Hill, Queensland, Australia). The time taken to finish the meal (in min) was also evaluated.

[3] = Appetite perceptions (VAS scores) during and after 90 min intraduodenal infusion; format: in vivo, human
Protocol: as §3, §1
Appetite sensations and energy intake. Subjective sensations of appetite, including hunger, fullness, desire to eat, prospective consumption (“how much food do you think you could eat if you were given a meal now?”), were assessed using validated VASs (Sensations of nausea and bloating were also assessed. Each VAS evaluated a sensation on a 100-mm horizontal line, where 0 represented “sensation is not felt at all” and 100 represented “sensation is felt the greatest.” Subjects were asked to place a vertical stroke on the 100-mm line in relation to what they were feeling at that particular point in time.
Baseline (“0”) values were calculated as the mean of values obtained at t=−15 and 0 min for VAS scores and plasma hormone concentrations and between t=−15 to 0 min for basal pyloric pressures, number, and amplitude of IPPWs, antral and duodenal PWs, and total number of duodenal PWSs. Basal pyloric pressures and the number and amplitude of IPPWs were expressed as means over 15-min segments during the 90-min infusion period. Numbers and amplitudes of antral and duodenal PWs were expressed as total number and mean values, respectively, for the 90-min infusion period. Duodenal PWSs were expressed as the total number of waves travelling over two, three, four, five, six, and seven channels during the 90-min infusion period. All data, except for plasma CCK and GLP-1 concentrations, were expressed as changes from baseline.
VAS scores, basal pyloric pressures, number and amplitude of IPPWs, and plasma hormone concentrations were analyzed by repeated-measures mixed model analysis of covariance (ANCOVA), with baseline as the covariate and time (0-90 min, at 15-min intervals) and treatment as within-subject factors. One-way ANOVA was used to assess the effect of treatment on energy intake, time taken to complete eating, total numbers and mean amplitudes of antral and duodenal PWs, and total number of duodenal PWSs. A logarithmic transformation was applied to nausea scores, antral amplitudes, and duodenal PWSs travelling 7.5 and 9 cm to better address the underlying assumptions of the models used (as these variables lacked normal distribution). If significance or near significance ([…]) was found, post hoc comparisons of least-squares means using Student's t-tests were performed. […]

plasma CCK = assay: Plasma CCK concentrations by radioimmunoassay; format: in vivo, human
Protocol: as §1, §2
Plasma CCK concentrations (in pmol/l) were determined after ethanol extraction using a previously described radioimmunoassay (3). A commercially available antibody (C258, Lot 105H4852, Sigma Chemical) raised in rabbits against the synthetic sulfated CCK-8 was employed. […] The intra-assay coefficient of variation (CV) was 9% and the interassay CV was 27%, with a sensitivity of 2.5 pmol/l. The sensitivity of the assay relates to its reliable detection limit.

[4] = isomolar concentrations; cited from earlier work
[5] = 90 min infusion, compared with control
[6] = buffet meal, compared with control
[7] = during 90 min intraduodenal infusion, 0.375 kcal/min, compared with control

CCCCCCCCCC(=O)O [C10, decanoic (C10:0) acid, reference compound]
plasma GLP-1 concentrations compared with control (plasma GLP-1; during infusion, C12 effect from 30 to 90 min): no difference between C10 and control
plasma GLP-1 concentrations after meal ingestion (plasma GLP-1; t=120 and 150 min, compared with control): no difference between C10 and control
stimulation of CCK secretion (CCK secretion; gastric infusion): neither C11 nor C10
basal pyloric pressure (tone) [1, 5]: significant difference between C10 and control
number of antral PWs [1, 5]: no difference between C10 and control
number of duodenal PWs [1, 5]: increased the number of duodenal PWs compared with control
number of IPPWs compared with control ([1]; C12: 0-15, 15-30 and 30-45 min, C10: 0-15 min): increased the number of IPPWs compared with control between 0 and 15 min
number of duodenal PWSs travelling over six channels (7.5 to <9 cm) ([1]; compared with control): decreased the number of waves that travelled over six channels compared with control
number of duodenal PWSs travelling over three channels (3 to <4.5 cm) ([1]; compared with control): no difference between C12 or C10 and control
number of duodenal PWSs travelling over two channels (1.5 to <3 cm) ([1]; compared with control): increased the number of waves compared with control
number of waves that travelled over nine channels ([1]; compared with control): no difference between C10 and control
amplitude of IPPWs compared with control ([1]; throughout the infusion period): no significant differences between C10 and control
energy intake at buffet meal ([2]; after 90 min intraduodenal infusion 0.375 kcal/min, compared with control): no difference between C10 and control infusion
amount of energy (in g) ingested from carbohydrate [2, 6]: no difference between C10 and control
amount of energy (in g) ingested from fat [2, 6]: no difference between C10 and control
amount of energy (in g) ingested from protein [2, 6]: no difference between C10 and control
time at which eating from the buffet meal was completed ([2]; mean±SE, not statistically significant): 20.6 ± 2.6 min
fullness (VAS) after meal ingestion ([3]; at 120 and 150 min, after the buffet meal): no difference between C10 and control
scores for bloating (VAS) ([3]; during 90 min intraduodenal infusion, 0.375 kcal/min): increased scores for bloating compared with control
nausea scores (VAS) [3, 7]: no difference in nausea scores between C10 and control
scores for hunger (VAS) [3, 7]: no differences were found between C10 and control
scores for prospective consumption (VAS) [3, 7]: no differences were found between C10 and control
scores for desire to eat (VAS) ([3]; during 90 min intraduodenal infusion, 0.375 kcal/min, healthy males, compared with control): no differences were found between C10 and control
plasma CCK concentrations (plasma CCK; during 90 min infusion, compared with control): increased plasma CCK concentrations
time of peak plasma CCK (plasma CCK; from start of infusion): 15 min
cytotoxicity relative to C12 [4]: similar

CCCCCCCCCCCCCCCCCC(=O)O [C18]
stimulation of CCK secretion (CCK secretion; duodenal infusion): reported to stimulate CCK secretion

CCCCCCCCCCC(=O)O [C11]
stimulation of CCK secretion (CCK secretion; gastric infusion): neither C11 nor C10
